Measurements taken from patent publication US10645927B2, “Antimicrobial wipe” (Carefusion 2200, Inc., priority 2015, dated 2020).
Structures can show the parent of a compound that is named as a salt. Marks after values point to notes of the source that are not given here.

System: Staphylococcus aureus ATCC 29213
Assay: Bactericidal activity by time kill method
Assay type: cell-based
Details: for Average Log: Baseline 7.123; for concentration required to deliver >3 log reduction in viable count: within 30 seconds of contact time
Experimental: Multiple surfactants in solution formulations were tested for use with the wipes. Effects of individual excipients such as phosphate buffer, polysorbate 20, nonoxynol-9, Cremophor® RH-40, dimethicone, and combinations of these products were investigated to determine the possibility of adverse effects on the antimicrobial efficacy of octenidine dihydrochloride. Bactericidal activities of octenidine dihydrochloride alone and in combinations with various excipients (Table 11) were tested by a time kill method using Staphylococcus aureus ATCC 29213 as test organism (Table 12).
Neutralizing effects of two similar surfactants, 0.5% Cremophor® RH40 and 0.5% polysorbate 20, on the bactericidal activity of octenidine dihydrochloride were tested using the Staphylococcus aureus ATCC 29213 as test organism (Table 13 and 14).

[1] = OCT 20 PPM, 0.5% Cremophor ® RH40, 30 seconds
[2] = OCT 20 PPM, 0.5% Polysorbate 20, 30 seconds
[3] = OCT 20 PPM, Aqueous, 30 seconds
[4] = OCT 100 PPM, 0.5% Cremophor ® RH40, 30 seconds
[5] = OCT 100 PPM, 0.5% Polysorbate 20, 30 seconds
[6] = OCT 100 PPM, Aqueous, 30 seconds
[7] = OCT 500 PPM, 0.5% Cremophor ® RH40, 30 seconds
[8] = OCT 500 PPM, 0.5% Polysorbate 20, 30 seconds
[9] = OCT 500 PPM, Aqueous, 30 seconds
[10] = OCT 4000 PPM, Full base formulation with Cremophor ® RH40
[11] = OCT 4000 PPM, Full base formulation with Polysorbate 20 (Table 13)

CCCCCCCCN=c1ccn(CCCCCCCCCCn2ccc(=NCCCCCCCC)cc2)cc1 [OCT, octenidine dihydrochloride]
Log Reduction (OCT 2 PPM in 0.1% Nonoxynol-9 in water, 30 seconds): 1.52 | Log Reduction (OCT 2 PPM in 0.25% Dimethicone in water, 30 seconds): 1.17 | Log Reduction (OCT 2 PPM in 1.5% Polysorbate 20 in water, 30 seconds): 0.30 | Log Reduction (OCT 2 PPM in Full base formulation with Nonoxynol-9 and Polysorbate 20 (Table 11), 30 seconds): 0.29 | Log Reduction (OCT 2 PPM in Full base formulation with Polysorbate 20 (Table 11), 30 seconds): 0.04 | Log Reduction (OCT 2 PPM in Phosphate Buffered Water, pH 6.0, 30 seconds): 1.39 | Log Reduction (OCT 2 PPM in Water, contact time 30 seconds): 3.41 | Log Reduction (OCT 20 PPM in 0.1% Nonoxynol-9 in water, 30 seconds): 2.94 | Log Reduction (OCT 20 PPM in 0.25% Dimethicone in water, 30 seconds): 1.41 | Log Reduction (OCT 20 PPM in 1.5% Polysorbate 20 in water, 30 seconds): 0.57 | Log Reduction (OCT 20 PPM in Full base formulation with Nonoxynol-9 and Polysorbate 20 (Table 11), 30 seconds): 0.58 | Log Reduction (OCT 20 PPM in Full base formulation with Polysorbate 20 (Table 11), 30 seconds): 0.35 | Log Reduction (OCT 20 PPM in Phosphate Buffered Water, pH 6.0, 30 seconds): 2.87 | Log Reduction (OCT 20 PPM in Water, contact time 30 seconds): 3.78 | Average Log Reduction [1]: 0.740 | Percent Reduction [1]: 81.808% | Average Log [1]: 6.383 | Average Log Reduction [2]: 0.795 | Percent Reduction [2]: 83.979% | Average Log [2]: 6.327 | Average Log Reduction [3]: 5.123 | Percent Reduction [3]: 99.999% | Average Log [3]: 2.000 | Log Reduction (OCT 100 PPM in 0.1% Nonoxynol-9 in water, 30 seconds): 4.69 | Log Reduction (OCT 100 PPM in 0.25% Dimethicone in water, 30 seconds): 1.67 | Log Reduction (OCT 100 PPM in 1.5% Polysorbate 20 in water, 30 seconds): 1.01 | Log Reduction (OCT 100 PPM in Full base formulation with Nonoxynol-9 and Polysorbate 20 (Table 11), 30 seconds): 0.60 | Log Reduction (OCT 100 PPM in Full base formulation with Polysorbate 20 (Table 11), 30 seconds): 0.49 | Log Reduction (OCT 100 PPM in Phosphate Buffered Water, pH 6.0, 30 seconds): 4.78 | Log Reduction (OCT 100 PPM in Water, contact time 30 seconds): 4.65 | Average Log Reduction [4]: 1.472 | Percent Reduction [4]: 96.624% | Average Log [4]: 5.651 | Average Log Reduction [5]: 1.205 | Percent Reduction [5]: 93.767% | Average Log [5]: 5.917 | Average Log Reduction [6]: 5.123 | Percent Reduction [6]: 99.999% | Average Log [6]: 2.000 | Log Reduction (OCT 500 PPM in 0.1% Nonoxynol-9 in water, 30 seconds): 5.12 | Log Reduction (OCT 500 PPM in 0.25% Dimethicone in water, 30 seconds): 2.12 | Log Reduction (OCT 500 PPM in 1.5% Polysorbate 20 in water, 30 seconds): 1.12 | Log Reduction (OCT 500 PPM in Full base formulation with Nonoxynol-9 and Polysorbate 20 (Table 11), 30 seconds): 1.40 | Log Reduction (OCT 500 PPM in Full base formulation with Polysorbate 20 (Table 11), 30 seconds): 0.76 | Log Reduction (OCT 500 PPM in Phosphate Buffered Water, pH 6.0, 30 seconds): 5.12 | Log Reduction (OCT 500 PPM in Water, contact time 30 seconds): 5.12 | Average Log Reduction [7]: 5.123 | Percent Reduction [7]: 99.999% | Average Log [7]: 2.000 | Average Log Reduction [8]: 3.080 | Percent Reduction [8]: 99.917% | Average Log [8]: 4.043 | Average Log Reduction [9]: 5.123 | Percent Reduction [9]: 99.999% | Average Log [9]: 2.000 | Log Reduction (OCT 1000 PPM in Full base formulation with Nonoxynol-9 and Polysorbate 20, total kill, value is limit of detection): ≥ 3.94* | Log Reduction (OCT 2000 PPM in Full base formulation with Nonoxynol-9 and Polysorbate 20, total kill, value is limit of detection): ≥ 4.14* | Log Reduction (OCT 4000 PPM in Full base formulation with Nonoxynol-9 and Polysorbate 20, total kill, value is limit of detection): ≥ 4.14* | Average Log Reduction [10]: 4.123 | Percent Reduction [10]: 99.992% | Average Log [10]: 3.000 | Average Log Reduction [11]: 4.123 | Percent Reduction [11]: 99.992% | Average Log [11]: 3.000 | percent reduction in viable count at 2 ppm (Staphylococcus aureus, ATCC29213, octenidine dihydrochloride alone, 2 PPM, contact time of 30 seconds): > 99.9% | concentration required to show 99.9% reduction in viable count (dissolved in pH 6.0 phosphate buffered water): > 20 PPM | microbicidal activity in the full base formulation (higher than 1000 PPM of octenidine dihydrochloride, full base formulation of Table 11): rapidly microbicidal | concentration required for 99.9% reduction relative to the concentration in water (pH 6.0 phosphate buffered water vs water): > 10 times | concentration required to deliver >3 log reduction in viable count (with 0.5% Cremophor® RH40): 500 PPM | concentration required to deliver >3 log reduction in viable count (with 0.5% polysorbate 20): 500 PPM
